According to ChEMBL document CHEMBL1158109, “Cytotoxic cis-fused bicyclic sesquiterpenoids from Jatropha neopauciflora” (J Nat Prod, 2006):
pIC50: −log10 of the molar value.

Legend:
U-251 = test: Cytotoxicity against human U251 cells after 48 hrs by SRB assay; format: functional, cell-based; details: U-251, 48 h
K562 = test: Cytotoxicity against human K-562 cells after 48 hrs by SRB assay; format: functional, cell-based; details: K562, 48 h

| Structure (SMILES) | pIC50 (U-251) | pIC50 (K562) |
| --- | --- | --- |
| C=C(C)[C@@H]1CC[C@@]2(C)[C@H]1[C@H]1CCC3[C@@]4(C)CC[C@H](O)C(C)(C)[C@@H]4CC[C@@]3(C)[C@]1(C)C[C@@H]2O (stereo not given in full) [CALENDULADIOL] | 4.31 | 4.50 |
| C=C(C)[C@@H]1CC[C@@]2(C)[C@H]1[C@H]1CC[C@@H]3[C@@]4(C)CC[C@H](OC(=O)/C=C/c5ccc(O)cc5)C(C)(C)[C@@H]4CC[C@@]3(C)[C@]1(C)C[C@@H]2O | 4.39 | – |
| COc1cccc2c1C(=O)c1c(O)c3c(c(O)c1C2=O)C[C@@](O)(C(=O)CO)C[C@@H]3O[C@H]1C[C@H](N)[C@H](O)[C@H](C)O1 [DOXORUBICIN] | 6.49 | 6.55 |
